# Experimental data taken from article PMC5052704, “Transition metal ion FRET uncovers K^+ regulation of a neurotransmitter/sodium symporter” (Nature Communications, 2016).
# Target: T1, LeuT (leucine transporter) (Aquifex aeolicus, UniProt O67854, R30A/A313H/A317H/K398C)
# T1 construct: gene snf; full-length LeuT, C-terminal octahistidine tag with thrombin site, pET16b derivative, expressed in E. coli C41, purified in DDM; tmFRET variants labelled with fluorescein-5-maleimide
# Experiment: scintillation proximity assay, Na+-dependent [3H]leucine binding
# Conditions: 5 μM [3H]leucine; pH 7.5; DDM; fluorescein-labelled at K398C; labelled compound
compound,measurement,value
CC(C)C[C@H](N)C(=O)O [leucine],"scintillation proximity assay, Na+-dependent [3H]leucine binding",Na^+ dependence of [^3H]leucine binding to R30A^tmFRET
